Blank lines part the entries; values can stand above or below the compound they belong to.
What was measured:
kyn-3-OHase = details: systemic administration; cited from earlier work
rat kyn-3-OHase = target: T1, rat kyn-3-OHase (Rattus norvegicus, UniProt O88867); assay: Inhibition of rat kyn-3-OHase expressed in Xenopus laevis oocytes; type: biochemical; details: homogenates of oocytes injected with the clone, 50 μM L-kyn
T1 construct: encodes a deduced protein of 478 amino acid residues; expressed in transfected cells; host or cells: Xenopus laevis oocytes injected with cRNA of the cloned rat kidney cDNA (homogenate)
Source text: Kyn-3-OHase activity was quantified by the conversion of L-kyn to 3-OH-Kyn.

brain [1] = details: peripherally formed; cited from earlier work
glycine modulatory site = details: cited from earlier work
brain [2] = details: cited from earlier work
[3] = system: excitatory amino acid receptor; details: sites normally activated by glutamate and aspartate; cited from earlier work
rats = details: administration to rats; cited from earlier work

T1 sequence (O88867 whole entry): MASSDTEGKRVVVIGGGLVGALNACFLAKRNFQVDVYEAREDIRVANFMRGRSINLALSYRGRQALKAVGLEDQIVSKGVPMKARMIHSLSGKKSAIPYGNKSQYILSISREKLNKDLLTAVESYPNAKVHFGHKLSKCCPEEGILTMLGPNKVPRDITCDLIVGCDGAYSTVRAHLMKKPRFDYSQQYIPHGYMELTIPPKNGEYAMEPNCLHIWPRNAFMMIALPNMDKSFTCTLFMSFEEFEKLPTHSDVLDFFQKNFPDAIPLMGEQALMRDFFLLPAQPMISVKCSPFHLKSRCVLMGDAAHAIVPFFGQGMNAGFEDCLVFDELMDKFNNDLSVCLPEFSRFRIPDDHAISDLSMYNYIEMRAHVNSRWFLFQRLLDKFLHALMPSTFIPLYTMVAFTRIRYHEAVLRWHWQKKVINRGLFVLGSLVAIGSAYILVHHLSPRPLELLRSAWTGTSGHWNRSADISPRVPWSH

IC50 (rat kyn-3-OHase): 290 nM
Compound: NC(CC(=O)c1ccc(Cl)c(Cl)c1)C(=O)O (racemic) [FCE 28833A, (R,S)-3,4-dichlorobenzoylalanine]
endogenous KYNA levels in rat brain tissue (kyn-3-OHase): dose-dependent elevation | endogenous kynurenine levels in rat brain tissue (kyn-3-OHase): dose-dependent elevation

Compound: Nc1c(O)cccc1C(=O)O [3-hydroxyanthranilic acid]
entry into the brain (brain [1]): enters the brain very poorly

Compound: O=C(O)c1cc(=O)c2ccccc2[nH]1 [KYNA, kynurenic acid]
affinity to the glycine modulatory site (glycine modulatory site): particularly high affinity | excitatory amino acid receptor antagonism (glycine modulatory site): effective excitatory amino acid receptor antagonist | properties when applied directly into the brain (brain [2]): anticonvulsant and neuroprotective properties

Compound: O=C(O)c1cccnc1C(=O)O [QUIN, quinolinic acid]
activity at excitatory amino acid receptor sites [3]: agonist | convulsions (rats): caused convulsions

From patent publication US6107069A, “Recombinant kynurenine-3-hydroxylase enzyme and process for its preparation” (priority 1996, dated 2000)
